# Measured values: patent US10654834B2 (Venenum Biodesign, LLC, priority 2016, dated 2020)
# Tests used:
# mouse TGR5 receptor = target: T1, mouse TGR5 receptor (Mus musculus, UniProt Q80SS6); assay: Mouse TGR5 HTRF cAMP production assay (HEK293-EBNA cells, Cisbio cAMP HiRange kit); type: cell-based; conditions: HEK293-EBNA cells overexpressing mouse TGR5, HTRF cAMP assay
# T1 construct: host or cells: HEK293-EBNA (293 c18, ATCC CRL10852)
# T1 sequence (Q80SS6 1-329): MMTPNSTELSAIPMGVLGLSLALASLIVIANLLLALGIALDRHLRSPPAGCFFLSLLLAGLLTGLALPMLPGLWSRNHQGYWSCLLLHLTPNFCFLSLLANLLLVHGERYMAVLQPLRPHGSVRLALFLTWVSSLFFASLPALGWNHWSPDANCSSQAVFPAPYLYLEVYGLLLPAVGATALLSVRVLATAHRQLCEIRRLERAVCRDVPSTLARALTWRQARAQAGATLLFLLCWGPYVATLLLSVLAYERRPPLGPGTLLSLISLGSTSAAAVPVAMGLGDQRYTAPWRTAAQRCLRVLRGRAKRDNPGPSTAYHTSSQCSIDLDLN
# In short: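 HEK293-EBNA cells stably expressing mouse TGR5 (episomal vector) were suspended in serum-free DMEM with 500 μM IBMX and exposed to 12-point half-log compound dilutions for 1 h at room temperature. cAMP was detected by HTRF (d2-cAMP/anti-cAMP cryptate, 1 h, room temperature), giving EC50 from duplicates.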
# human TGR5 receptor = target: T2, human TGR5 receptor (Homo sapiens, UniProt Q8TDU6); assay: Human TGR5 cAMP production assay (hTGR5-CHO cells, DiscoveRx cAMP XS+ kit); type: cell-based; conditions: luminescent cAMP assay, read-out: Human TGR5 Lum. cAMP Activity (EC50)
# T2 construct: host or cells: CHO-K1 (hTGR5-CHO)
# T2 sequence (Q8TDU6 1-330): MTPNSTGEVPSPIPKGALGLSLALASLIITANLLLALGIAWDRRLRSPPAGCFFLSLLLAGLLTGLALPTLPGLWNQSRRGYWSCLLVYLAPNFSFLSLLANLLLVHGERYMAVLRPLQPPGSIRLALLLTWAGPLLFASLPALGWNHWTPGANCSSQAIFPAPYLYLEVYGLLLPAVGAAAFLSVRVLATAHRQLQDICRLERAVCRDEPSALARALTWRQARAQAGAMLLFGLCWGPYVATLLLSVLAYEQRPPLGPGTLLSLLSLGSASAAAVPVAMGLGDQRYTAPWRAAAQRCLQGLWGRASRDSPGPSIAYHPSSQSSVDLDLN
# In short: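 CHO-K1 cells stably expressing hTGR5, in PBS with IBMX and cAMP antibody, treated with half-log compound dilutions for 1 h at room temperature. cAMP measured by enzyme-fragment complementation luminescence after overnight detection; EC50 values reported.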
SMILES,EC50 (mouse TGR5 receptor),EC50 (human TGR5 receptor)
"O=C(O)CCCC1CCN(c2cc(N3C[C@H](O)C[C@H]3C(=O)NCCc3ccc(C(F)(F)F)cc3)nc(C(F)(F)F)n2)CC1 [Compound 212, 4-(1-(6-((2S,4R)-4-hydroxy-2-((4-(trifluoromethyl)phenethyl)carbamoyl)pyrrolidin-1-yl)-2-(trifluoromethyl)pyrimidin-4-yl)piperidin-4-yl)butanoic acid]",< 0.1 µM,0.1 to 0.999 µM
"N#Cc1ccc(CCNC(=O)[C@@H]2CCN2c2cc(N3CCC(CCN)CC3)nc(C(F)(F)F)n2)cc1 [Compound 246, (S)-1-(6-(4-(2-aminoethyl)piperidin-1-yl)-2-(trifluoromethyl)pyrimidin-4-yl)-N-(4-cyanophenethyl)azetidine-2-carboxamide]",< 0.1 µM,< 0.1 µM
"CN(C)CC(=O)N1CCN(c2cc(N3CCC[C@@H](C(=O)NCCc4ccc(C(F)(F)F)cc4)C3)nc(C(F)(F)F)n2)CC1 [Compound 338, (R)-1-(6-(4-(2-(dimethylamino)-acetyl)piperazin-1-yl)-2-(trifluoromethyl)-pyrimidin-4-yl)-N-(4-(trifluoromethyl)phenethyl)-piperidine-3-carboxamide]",0.1 to 0.999 µM,0.1 to 0.999 µM
"N#Cc1ccc(CCNC(=O)[C@@H]2CCCN2c2cc(N3CCC(CCCC(=O)NCCNc4ncnc5c4ncn5[C@@H]4O[C@H](CO)C(O)C4O)CC3)nc(C(F)(F)F)n2)cc1 (stereo partly drawn) [Compound 97, (2S)-N-(4-cyanophenethyl)-1-(6-(4-(4-((2-((9-((2R,5R)-3,4-dihydroxy-5-(hydroxymethyl)tetrahydrofuran-2-yl)-9H-purin-6-yl)amino)ethyl)amino)-4-oxobutyl)piperidin-1-yl)-2-(trifluoromethyl)-pyrimidin-4-yl)pyrrolidine-2-carboximide]",< 0.1 µM,< 0.1 µM
"CC(=O)NCCOCCNC(=O)NCCC1CCN(c2cc(N3CC[C@H]3C(=O)NCCc3ccc(C#N)cc3)nc(C(F)(F)F)n2)CC1 [Compound 359, (S)-N-(4-cyanophenethyl)-1-(6-(4-(4,12-dioxo-8-oxa-3,5,11-triazatridecyl)piperidin-1-yl)-2-(trifluoromethyl)pyrimidin-4-yl)azetidine-2-carboxamide]",< 0.1 µM,< 0.1 µM
"CN(CCS(=O)(=O)O)C(=O)CCC1CCN(c2cc(N3CC[C@H]3C(=O)NCCc3ccc(C(F)(F)F)cc3)nc(C(F)(F)F)n2)CC1 [Compound 252, (S)-2-(N-methyl-3-(1-(2-(trifluoromethyl)-6-(2-((4-(trifluoromethyl)phenethyl)carbamoyl)azetidin-1-yl)pyrimidin-4-yl)piperidin-4-yl)propanamido)ethanesulfonic acid]",< 0.1 µM,< 0.1 µM
"CN(CC#CCOC1CCN(c2cc(N3CCC[C@H]3C(=O)NCCc3ccc(C#N)cc3)nc(C(F)(F)F)n2)CC1)CCS(=O)(=O)O [Compound 135, (S)-2-((4-((1-(6-(2-((4-cyanophenethyl)carbamoyl)pyrrolidin-1-yl)-2-(trifluoromethyl)pyrimidin-4-yl)piperidin-4-yl)oxy)but-2-yn-1-yl)(methyl)amino)ethanesulfonic acid]",< 0.1 µM,0.1 to 0.999 µM
"N#Cc1ccc(CCNC(=O)[C@@H]2CCCN(c3cc(N4CCN(CC(=O)O)CC4)nc(C(F)(F)F)n3)C2)cc1 [Compound 315, (R)-2-(4-(6-(3-((4-cyanophenethyl)carbamoyl)piperidin-1-yl)-2-(trifluoromethyl)pyrimidin-4-yl)piperazin-1-yl)acetic acid]",< 0.1 µM,1 to 30 µM
COCCC1CCN(c2cc(N3CCC[C@H]3C(=O)NCCc3ccc(C#N)cc3)nc(C(F)(F)F)n2)CC1 [Compound 25],< 0.1 µM,< 0.1 µM
N#Cc1ccc(CCNC(=O)[C@@H]2CCCN2c2cc(N3CCN(CCO)CC3)nc(C(F)(F)F)n2)cc1 [Compound 31],< 0.1 µM,0.1 to 0.999 µM
"O=C(O)C(=O)N1CCN(c2cc(N3CCC[C@@H](C(=O)NCCc4ccc(C(F)(F)F)cc4)C3)nc(C(F)(F)F)n2)CC1 [Compound 340, (R)-2-oxo-2-(4-(2-(trifluoromethyl)-6-(3-((4-(trifluoromethyl)phenethyl)-carbamoyl)piperidin-1-yl)pyrimidin-4-yl)piperazin-1-yl)acetic acid]",< 0.1 µM,0.1 to 0.999 µM
"N=C(N)N1CCC(CCCC2CCN(c3cc(N4CC[C@H]4C(=O)NCCc4ccc(C(F)(F)F)cc4)nc(C(F)(F)F)n3)CC2)CC1 [Compound 288, (S)-1-(6-(4-(3-(1-carbamimidoylpiperidin-4-yl)propyl)piperidin-1-yl)-2-(trifluoromethyl)pyrimidin-4-yl)-N-(4-(trifluoromethyl)phenethyl)-azetidine-2-carboxamide]",< 0.1 µM,0.1 to 0.999 µM
N#Cc1ccc(CCNC(=O)[C@@H]2CCCN2c2cc(NCCS(=O)(=O)O)nc(C(F)(F)F)n2)cc1 [Compound 12],1 to 30 µM,1 to 30 µM
"N#Cc1ccc(CCNC(=O)[C@@H]2CCCN2c2cc(-c3ccc(CO)s3)nc(C(F)(F)F)n2)cc1 [Compound 183, (S)-N-(4-cyanophenethyl)-1-(6-(5-(hydroxymethyl)thiophen-2-yl)-2-(trifluoromethyl)pyrimidin-4-yl)pyrrolidine-2-carboxamide]",< 0.1 µM,0.1 to 0.999 µM
"N#Cc1ccc(CCNC(=O)[C@@H]2CCCN2c2cc(-c3csc(CO)c3)nc(C(F)(F)F)n2)cc1 [Compound 182, (S)—N-(4-cyanophenethyl)-1-(6-(5-(hydroxymethyl)thiophen-3-yl)-2-(trifluoromethyl)pyrimidin-4-yl)pyrrolidine-2-carboxamide]",< 0.1 µM,0.1 to 0.999 µM
"N#Cc1ccc(CCNC(=O)[C@@H]2CCCN(c3cc(N4CCN(CCOCCO)CC4)nc(C(F)(F)F)n3)C2)cc1 [Compound 314, (R)-N-(4-cyanophenethyl)-1-(6-(4-(2-(2-hydroxyethoxy)ethyl)piperazin-1-yl)-2-(trifluoromethyl)pyrimidin-4-yl)piperidine-3-carboxamide]",< 0.1 µM,0.1 to 0.999 µM
N#Cc1ccc(CCNC(=O)[C@@H]2CCCN2c2cc(N3CCC(CCCO)CC3)nc(C(F)(F)F)n2)cc1 [Compound 23],< 0.1 µM,< 0.1 µM
"N#Cc1ccc(CCNC(=O)[C@@H]2CCCN2c2cc(-c3ccc(CNC(=O)NCCCS(=O)(=O)O)cc3)nc(C(F)(F)F)n2)cc1 [Compound 193, (S)-3-(3-(4-(6-(2-((4-cyanophenethyl)carbamoyl)pyrrolidin-1-yl)-2-(trifluoromethyl)pyrimidin-4-yl)benzyl)ureido)propane-1-sulfonic acid]",< 0.1 µM,0.1 to 0.999 µM
"N#Cc1ccc(CCNC(=O)[C@@H]2CCCN2c2cc(N3CCC(CCCC(=O)NCCN)CC3)nc(C(F)(F)F)n2)cc1 [Compound 92, (S)-1-(6-(4-(4-((2-aminoethyl)amino)-4-oxobutyl)piperidin-1-yl)-2-(trifluoromethyl)pyrimidin-4-yl)-N-(4-cyanophenethyl)pyrrolidine-2-carboxamide]",< 0.1 µM,< 0.1 µM
N#CCCC1CCN(c2cc(N3CCC[C@H]3C(=O)NCCc3ccc(C(F)(F)F)cc3)nc(C(F)(F)F)n2)CC1 [Compound 11],< 0.1 µM,< 0.1 µM
"N#Cc1ccc(CCNC(=O)[C@@H]2CCCN2c2cc(-c3ccc(CCC(=O)N[C@@H](CCCNC(=N)N)C(=O)O)cc3)cc(C(F)(F)F)n2)cc1 [Compound 207, (S)-2-(3-(4-(2-((S)-2-((4-cyanophenethyl)carbamoyl)pyrrolidin-1-yl)-6-(trifluoromethyl)pyridin-4-yl)phenyl)propanamido)-5-guanidino-pentanoic acid]",< 0.1 µM,0.1 to 0.999 µM
"CN(C(=O)NCCC(=O)O)c1ccc(-c2cc(N3CCC[C@H]3C(=O)NCCc3ccc(C#N)cc3)nc(C(F)(F)F)n2)cc1 [Compound 196, (S)-3-(3-(4-(6-(2-((4-cyanophenethyl)carbamoyl)pyrrolidin-1-yl)-2-(trifluoromethyl)pyrimidin-4-yl)phenyl)-3-methylureido)propanoic acid]",0.1 to 0.999 µM,1 to 30 µM
COc1cc(C(F)(F)F)ccc1CCNC(=O)[C@@H]1CCCN(c2cc(N3CCC(CO)CC3)nc(C(F)(F)F)n2)C1 [Compound 331],0.1 to 0.999 µM,< 0.1 µM
"N#Cc1ccc(CCNC(=O)[C@@H]2CCCN2c2cc(N3CCC(CCNC(=O)N[C@H](CC(=O)O)C(=O)O)CC3)nc(C(F)(F)F)n2)cc1 [Compound 82, (R)-2-(3-(2-(1-(6-((S)-2-((4-cyanophenethyl)carbamoyl)pyrrolidin-1-yl)-2-(trifluoromethyl)pyrimidin-4-yl)piperidin-4-yl)ethyl)ureido)succinic acid]",< 0.1 µM,< 0.1 µM
